The text below walks through data of publication PMC7827014, “Synthetic Transition from Thiourea-Based Compounds to Tetrazole Derivatives: Structure and Biological Evaluation of Synthesized New N-(Furan-2-ylmethyl)-1H-tetrazol-5-amine Derivatives” (Molecules, 2021).

pIC50: −log10 of the molar value. Values after ≈ are worked out from the molar mass of the structure shown. Where two headings read alike, the source gives them in different places.

For one assay, the system named is M. tuberculosis H37Rv. Kind of assay: In vitro antitubercular MIC. It counts as cell-based. The note with it: Mycobacterium tuberculosis, read-out: Minimal inhibitory concentration.
The next assay concerns E. hirae ATCC 10541. The assay can be described thus: MIC microdilution, standard strain. It counts as cell-based. The settings on record: Enterococcus hirae, ATCC10541; E. hirae ATCC 10541, 18 h, 35 °C; read-out: MIC.
Another assay relates to E. coli ATCC 25922. Kind of assay: MIC microdilution, standard strain. It counts as cell-based. The settings on record: Escherichia coli, ATCC25922; E. coli ATCC 25922, 18 h, 35 °C; read-out: MIC. Background: Dilution methods test growth across graded concentrations, often in twofold steps.
In another assay the test system is HaCaT. Kind of assay: MTT assay 72 h. It counts as cell-based, human. The settings on record: Homo sapiens; HaCaT normal cells, MTT 72 h, mean ± SD; read-out: IC50. The protocol: (§1) The cell viability was assessed by using an enzymatic conversion of 3-(4,5-dimethylthiazol-2-yl)-2,5-diphenyltetrazolium bromide salt (MTT) to insoluble formazan crystals by mitochondrial dehydrogenases, occurring in living cells. Cells were cultured in 96-well plates at a density of l × 10^4 cells per well, and cultured to adhere for 24 h at 37 °C in a CO2 incubator. After 24 h of incubation, culture medium was replaced with a fresh medium, then cells were treated with various concentrations of the compounds and incubated for 72 h at 37 °C in a CO2 incubator. Untreated cells were used as the control. Subsequently, MTT solution (0,5 mg/mL in free-serum medium) was added, and samples were incubated for 4 h at 37 °C in a CO2 incubator. Then, the medium was aspirated, and formed formazan crystals were solubilized by adding an isopropanol-DMSO mixture (1:1 vol). The intensity of the dissolved crystals was measured using a UVM 340 reader (ASYS Hitech GmbH, Austria), at a wavelength of 570 nm. Cell viability was presented as a percent of MTT reduced in treated cells versus control cells (incubated without tested compounds). The relative MTT level (%) was calculated as [A]/[B]×100, where [A] is the absorbance of the test sample, and [B] is the absorbance of the control sample containing the untreated cells. The IC50 value was estimated using CalcuSyn version 1.0. […]
(§2) Antiproliferative activity of tested compounds. Data are given as IC50 [µM] and SI.
(§3) Human immortal keratinocyte cell line from adult human skin (HaCaT), Human colorectal adenocarcinoma (CaCo-2), Human epithelial lung carcinoma cell line (A549) and Human melanoma cell line (HTB-140). Data are expressed as mean ± SD. The SI (Selectivity Index) was calculated for each compound using formula: SI = IC50 for normal cel line / IC50 cancer cel line.

The next assay has as its system A549. Kind of assay: MTT assay 72 h. The note with it: Homo sapiens; A549, MTT 72 h, mean ± SD; read-out: IC50. It counts as cell-based, human. As for the experimental part:
as §1, §2, §3

Another assay deals with HTB-140. Kind of assay: MTT assay 72 h. It counts as cell-based, human. The note with it: Homo sapiens; HTB-140, MTT 72 h, mean ± SD. The protocol: as §1, §2, §3
Another assay has as its system Caco-2. The assay can be described thus: MTT assay 72 h. The settings on record: Homo sapiens; Caco-2, MTT 72 h, mean ± SD; read-out: IC50. It counts as cell-based. The protocol:
as §1, §2, §3

Assay [1] relates to S. epidermidis ATCC 12228. Kind of assay: MIC microdilution, standard strain. Format: cell-based. The note with it: Staphylococcus epidermidis, ATCC12228; S. epidermidis ATCC 12228, 18 h, 35 °C; read-out: MIC.
The test system of a further assay is P. aeruginosa ATCC 15442. The assay can be described thus: MIC microdilution, standard strain. It counts as cell-based. The settings on record: Pseudomonas aeruginosa, ATCC15442, 18 h.
The subject of the next assay is S. aureus ATCC 29213. The assay can be described thus: MIC microdilution, standard strain. Format: cell-based. The note with it: Staphylococcus aureus, ATCC29213; S. aureus ATCC 29213, 18 h, 35 °C; read-out: MIC.
A further assay has as its system E. coli NCTC 8196. The assay can be described thus: MIC microdilution, standard strain. It counts as cell-based. The note with it: Escherichia coli, NCTC8196; E. coli NCTC 8196, 18 h, 35 °C; read-out: MIC.
Assay [2] has as its system M. tuberculosis INH susceptible (Spec. 192). Kind of assay: In vitro antitubercular MIC. It counts as cell-based. The note with it: Mycobacterium tuberculosis, read-out: Minimal inhibitory concentration.
A further assay has as its system S. aureus NCTC 4163. The assay can be described thus: MIC microdilution, standard strain. Format: cell-based. The settings on record: Staphylococcus aureus, NCTC4163; S. aureus NCTC 4163, 18 h, 35 °C; read-out: MIC.
In a further assay the test system is S. aureus T5595/69. Kind of assay: MIC microdilution, clinical isolate. Format: cell-based. The settings on record: Staphylococcus aureus.
The subject of assay [3] is S. epidermidis KR 4268 830/19. The assay can be described thus: MIC microdilution, clinical isolate. It counts as cell-based. The settings on record: Staphylococcus epidermidis, KR4268830/19.
The subject of assay [4] is S. epidermidis T 5501 851/19. The assay can be described thus: MIC microdilution, clinical isolate. Format: cell-based. The note with it: Staphylococcus epidermidis, T5501851/19.
In assay [5] the test system is S. epidermidis KR 4358/2 840/19. Kind of assay: MIC microdilution, clinical isolate. The note with it: Staphylococcus epidermidis, KR4358/2840/19. It counts as cell-based.
Assay [6] relates to hospital staphylococcal isolates. Kind of assay: MIC, panel of clinical staphylococcal isolates. It counts as cell-based. The protocol: (§4) Compounds were screened for their minimal inhibitory concentrations (MICs).
(§5) The antimicrobial assays were conducted using reference strains of bacteria derived from international microbe collections—American Type Culture Collection (ATCC) and National Collection of Type Culture (NCTC). […] The antimicrobial activity of compounds was expressed by minimum inhibitory concentration values (MICs), according to CLCI reference procedures with some modifications. MIC was tested by the two-fold serial microdilution method (in 96-well microtiter plates) on MH II liquid medium. […] The stock solution of tested compounds was prepared in DMSO, and diluted in sterile medium (to a maximum of 1% of solvent content). […] Clinical microorganisms used in this study were obtained from the collection of the Department of Pharmaceutical Microbiology, Medical University of Warsaw, Poland.

The subject of another assay is S. aureus T5591/68. Kind of assay: MIC microdilution, clinical isolate. The note with it: Staphylococcus aureus. It counts as cell-based.
Assay [7] relates to S. epidermidis T 5253 845/19. Kind of assay: MIC microdilution, clinical isolate. Format: cell-based. The note with it: Staphylococcus epidermidis, T5253845/19.
The test system of assay [8] is standard bacterial strains. The assay can be described thus: MIC, panel of standard bacterial strains. It counts as cell-based. The protocol: as §4, §5
For assay [9], the system named is S. epidermidis T 5399 848/19. The assay can be described thus: MIC microdilution, clinical isolate. The settings on record: Staphylococcus epidermidis, T5399848/19. It counts as cell-based.
The subject of a further assay is S. aureus T5403/51. Kind of assay: MIC microdilution, clinical isolate. Format: cell-based. The settings on record: Staphylococcus aureus.
Assay [10] relates to S. epidermidis KR 4047 825/19. The assay can be described thus: MIC microdilution, clinical isolate. It counts as cell-based.
Assay [11] concerns S. epidermidis KR 4243 829/19. Kind of assay: MIC microdilution, clinical isolate. The note with it: Staphylococcus epidermidis, KR4243829/19. Format: cell-based.
The test system of the next assay is S. aureus 203/19. The assay can be described thus: MIC microdilution, clinical isolate. Format: cell-based. The settings on record: Staphylococcus aureus.
A further assay relates to S. aureus T5384/48. Kind of assay: MIC microdilution, clinical isolate. It counts as cell-based. The note with it: Staphylococcus aureus.
The next assay has as its system S. aureus 155/6. The assay can be described thus: MIC microdilution, clinical isolate. It counts as cell-based. The note with it: Staphylococcus aureus.
For a further assay, the system named is S. aureus T5241/46. Kind of assay: MIC microdilution, clinical isolate. The note with it: Staphylococcus aureus. Format: cell-based.
Assay [12] concerns S. epidermidis KR 4313 834/19. The assay can be described thus: MIC microdilution, clinical isolate. The note with it: Staphylococcus epidermidis, KR4313834/19. It counts as cell-based.
A further assay concerns S. aureus 176/13. The assay can be described thus: MIC microdilution, clinical isolate. The settings on record: Staphylococcus aureus. Format: cell-based.

A word on the pIC50: it is −log10 of the IC50, conventionally taken in molar units. With `Ic1ccc(-n2nnnc2NCc2ccco2)cc1` [Compound 3, N-(furan-2-ylmethyl)-1-(4-iodophenyl)-1H-tetrazol-5-amine], the MIC with M. tuberculosis H37Rv was greater than 512 µg/mL; in the assay on E. hirae ATCC 10541, 128 µg/mL (≈ 349 µM); in the assay on E. coli ATCC 25922, 128 µg/mL (≈ 349 µM); in assay [1], 128 µg/mL (≈ 349 µM); against P. aeruginosa ATCC 15442, 512 µg/mL (≈ 1390 µM); in the assay on S. aureus ATCC 29213 it was 64 µg/mL (≈ 174 µM). Also, the MIC in the assay with E. coli NCTC 8196 was 128 µg/mL (≈ 349 µM); in assay [2], greater than 512 µg/mL; in the assay with S. aureus NCTC 4163, 64 µg/mL (≈ 174 µM). For the same compound, the pIC50 with HaCaT, with A549, with HTB-140 and in the assay with Caco-2 was less than 4.00 each time.

In the case of `Fc1ccccc1-n1nnnc1NCc1ccco1` [Compound 6, 1-(2-fluorophenyl)-N-(furan-2-ylmethyl)-1H-tetrazol-5-amine], the MIC worked out at 8 µg/mL (≈ 30.9 µM) in the assay with S. aureus T5595/69; 512 µg/mL (≈ 1970 µM) in the assay with M. tuberculosis H37Rv; 8 µg/mL (≈ 30.9 µM) in assay [3]; 2 µg/mL (≈ 7.71 µM) in assay [4]; 4 µg/mL (≈ 15.4 µM) in assay [5]; 8 µg/mL (≈ 30.9 µM) in [6] (Staphylococcus aureus, rest of studied Staphylococci, except S. aureus 155/6, read-out: MICs). Also, the MIC was 4 µg/mL (≈ 15.4 µM) in assay [6] (Staphylococcus epidermidis, four hospital S. epidermidis isolates, read-out: MIC); 8 µg/mL (≈ 30.9 µM) against S. aureus T5591/68; 8 µg/mL (≈ 30.9 µM) in [7]; 16 µg/mL (≈ 61.7 µM) with E. hirae ATCC 10541; 16 µg/mL (≈ 61.7 µM) in assay [8] (some Gram-negative strains); 4 µg/mL (≈ 15.4 µM) in assay [9]. Besides, the MIC against S. aureus T5403/51 is 8 µg/mL (≈ 30.9 µM); in the assay with E. coli ATCC 25922, 16 µg/mL (≈ 61.7 µM); in assay [10] (Staphylococcus epidermidis, KR4047825/19, clinical isolate S. epidermidis KR 4047 825/19), 8 µg/mL (≈ 30.9 µM); in assay [11], 4 µg/mL (≈ 15.4 µM); in assay [1] it was 32 µg/mL (≈ 123 µM); in the assay with S. aureus 203/19, 8 µg/mL (≈ 30.9 µM). Also, the MIC is 8 µg/mL (≈ 30.9 µM) with S. aureus ATCC 29213; 512 µg/mL (≈ 1970 µM) in the assay with E. coli NCTC 8196; 8 µg/mL (≈ 30.9 µM) against S. aureus T5384/48; 16 µg/mL (≈ 61.7 µM) with S. aureus 155/6; 8 µg/mL (≈ 30.9 µM) against S. aureus T5241/46; 4 µg/mL (≈ 15.4 µM) in assay [12]. Also, the MIC in assay [2] was 512 µg/mL (≈ 1970 µM); in the assay on S. aureus 176/13 it was 8 µg/mL (≈ 30.9 µM); in the assay on S. aureus NCTC 4163, 8 µg/mL (≈ 30.9 µM). In addition, in [6] (two clinical S. epidermidis strains), the “growth inhibitory strength relative to Ciprofloxacin” value is 8–16 fold. Also, the “MIC (range)” value in [8] (standard Staphylococci) is 8 to 32 µg/mL. Besides, the “strength relative to Ciprofloxacin” value in assay [10] (S. epidermidis KR 4047 825/19 isolate) is “half of the Ciprofloxacin strength”. Moreover, the pIC50 with HaCaT, in the assay with A549, in the assay with HTB-140 and with Caco-2 was less than 4.00 throughout.
